In article PMC12649549, “Sequence Permutation Generated Lysine and Tryptophan-Rich Antimicrobial Peptides with Enhanced Therapeutic Index” (Antibiotics, 2025):
Like-named read-outs stand apart in the source and are kept apart here.

Legend:
[1] = tested on: A. baumannii 14B00100 (Acinetobacter sp., BCRC number 14B0100)
Experimental: (§1) The antibacterial and salt-resistant activity of the peptides was tested using Escherichia coli (ATCC 25922), Pseudomonas aeruginosa Migula (ATCC 27853), Acinetobacter sp. (BCRC number 14B0091, BCRC number 14B0097, and BCRC number 14B0100), and Staphylococcus aureus sp. strains (ATCC 25923, ATCC 33591, ATCC 33592, ATCC 33593, and ATCC 6538). All bacteria were obtained from the Food Industry Research and Development Institute (Hsinchu, Taiwan) and cultured in sterilized Müller-Hinton (MH) broth at 37 °C and 200 rpm for 8 h. The inoculum concentrations were determined by measuring the optical density at 600 nm (OD 600 = 1, approximately 10^8 CFU/mL) using an Ultrospec 2100 pro UV-Visible spectrophotometer (Biochrom Ltd., Cambridge, UK) after 8 h of culture.
(§2) The antibacterial activities of the peptides in Müller-Hinton (MH) broth and modified LYM broth were determined using the standard broth microdilution method as per Clinical and Laboratory Standards Institute (CLSI) guidelines. The LYM broth was prepared with specific components and adjusted to different conditions, including varying concentrations of NaCl and MgCl2, and different pH levels. To prepare the LYM broth, 5.4 mM KCl, 5.6 mM Na2HPO4, 0.5 mM MgSO4, and 1.0 mM sodium citrate were added. Additionally, 0.4 mg of ZnCl2, 2.0 mg of FeCl3·6H2O, 0.1 mg of CuSO4·5H2O, 0.1 mg of MnSO4·H2O, 0.1 mg of Na2B4O7∙10H2O, 700 mg of amino acid mixtures without tryptophan (Takara Bio Inc., San Jose, CA, USA), and 20 mg of L-tryptophan were added per liter of medium. The pH was adjusted to 7.4, and a vitamin mixture (100X, Sigma) and glucose concentration of 2% were added. For different conditions of LYM broth, NaCl concentrations of 300, 200, 150, and 50 mM, MgCl2 concentrations of 2.5, 1.5, and 0.5 mM, and pH levels of 6.5, 5.5, and 4.5 were adjusted. Bacterial strains were incubated in MH broth overnight, regrown, and diluted to a final concentration of 5 × 10^5 CFU/mL. Peptides were added to each well at final concentrations of 50, 25, 12.5, 6.25, 3.13, 1.56, and 0.78 µg/mL, and 99 µL of diluted microbes was loaded into each well of a polypropylene 96-well plate. […] The Morpheus HeatMap software (https://software.broadinstitute.org/morpheus/) was used to display MIC values on a color scale. All experiments were independently repeated three times.

S. aureus ATCC 33593 = tested on: S. aureus ATCC 33593
Experimental: as §1, §2

S. aureus ATCC 33592 = tested on: S. aureus ATCC 33592
Experimental: as §1
as §2, with “For different conditions of LYM broth, NaCl concentrations of 300, 200, 150, and 50 mM, MgCl2 concentrations of 2.5, 1.5, and 0.5 mM, and pH levels of 6.5, 5.5, and 4.5 were adjusted.” left out

Gram-negative bacteria = test: Geometric mean MIC and therapeutic index, Gram-negative bacteria; assay type: cell-based; details: Gram-negative bacteria; for GM G− (geometric mean of the MIC values): MH broth, MIC >50 µg/mL counted as 100 µg/mL; for Therapeutic Index (TI) G−: HC10/GM
Experimental: (§3) In this study, we aimed to investigate the potential of W5K series peptides for therapeutic use. To evaluate their efficacy for antibacterial therapy, we used the Therapeutic Index (TI) as a measure of their cell selectivity. The TI was calculated as the ratio of the concentration causing 10% hemolysis of human red blood cells (HC10) to the geometric mean minimum inhibitory concentration (GM) of the peptides against both Gram-negative and Gram-positive bacteria. This parameter was used to quantitatively assess the balance between antibacterial potency and cytotoxicity among the W5K derivatives.
as §2

Gram-positive bacteria = test: Geometric mean MIC and therapeutic index, Gram-positive bacteria; assay type: cell-based; details: Gram-positive bacteria; for GM G+ (geometric mean of the MIC values): MH broth, MIC >50 µg/mL counted as 100 µg/mL; for Therapeutic Index (TI) G+: HC10/GM
Experimental: as §3, §2

[2] = tested on: Both Gram-positive and -negative bacteria; test: Geometric mean MIC, therapeutic index and fold changes of MIC, whole panel of strains; assay type: cell-based; details: for GM G−/+ (geometric mean of the MIC values): Both Gram-positive and -negative bacteria, MH broth, MIC >50 µg/mL counted as 100 µg/mL; for Therapeutic Index (TI) G−/+: HC10/GM, both Gram-positive and -negative bacteria; for weakening of antibacterial efficacy (MIC): LYM broth
Experimental: as §3, §2

[3] = LYM broth, 0 mM NaCl, 16 h, 37 °C
[4] = LYM broth, 50 mM NaCl, 16 h, 37 °C
[5] = LYM broth, 100 mM NaCl, 16 h, 37 °C
[6] = LYM broth, 200 mM (NaCl), 16 h, 37 °C
[7] = LYM broth, 300 mM (NaCl), 16 h, 37 °C
[8] = MH broth, 5 × 10^5 CFU/mL, 16 h, 37 °C, repeated three times

## Ac-KKKWRKWLKWLAK-NH2 [Peptide W5K12]
[1]; [3]
  MIC: 1.56 µg/mL
[1]; LYM broth, 0.5 mM MgCl2
  MIC: 1.56 µg/mL
[1]; LYM broth, 1.5 mM MgCl2
  MIC: 1.56 µg/mL
[1]; LYM broth, 2.5 mM MgCl2
  MIC: 3.13 µg/mL
[1]; [4]
  MIC: 1.56 µg/mL
[1]; [5]
  MIC: 1.56 µg/mL
[1]; [6]
  MIC: 1.56 µg/mL
[1]; [7]
  MIC: 1.56 µg/mL
[1]; LYM broth, pH 4.5
  MIC: 3.13 µg/mL
[1]; LYM broth, pH 5.5
  MIC: 3.13 µg/mL
[1]; LYM broth, pH 6.5
  MIC: 1.56 µg/mL
[1]; [8]
  MIC: 3.13 µg/mL
S. aureus ATCC 33593; [3]
  MIC: 3.13 µg/mL
S. aureus ATCC 33593; LYM broth, 0.5 mM MgCl2
  MIC: 3.13 µg/mL
S. aureus ATCC 33593; LYM broth, 1.5 mM MgCl2
  MIC: 3.13 µg/mL
S. aureus ATCC 33593; LYM broth, 2.5 mM MgCl2
  MIC: 3.13 µg/mL
S. aureus ATCC 33593; [4]
  MIC: 3.13 µg/mL
S. aureus ATCC 33593; [5]
  MIC: 3.13 µg/mL
S. aureus ATCC 33593; [6]
  MIC: 6.25 µg/mL
S. aureus ATCC 33593; [7]
  MIC: 12.5 µg/mL
S. aureus ATCC 33593; LYM broth, pH 4.5
  MIC: 3.13 µg/mL
S. aureus ATCC 33593; LYM broth, pH 5.5
  MIC: 1.56 µg/mL
S. aureus ATCC 33593; LYM broth, pH 6.5
  MIC: 1.56 µg/mL
S. aureus ATCC 33593; [8]
  MIC: 6.25 µg/mL
S. aureus ATCC 33592; [3]
  MIC: 3.13 µg/mL
S. aureus ATCC 33592; LYM broth, 0.5 mM MgCl2
  MIC: 3.13 µg/mL
S. aureus ATCC 33592; LYM broth, 1.5 mM MgCl2
  MIC: 3.13 µg/mL
S. aureus ATCC 33592; LYM broth, 2.5 mM MgCl2
  MIC: 3.13 µg/mL
S. aureus ATCC 33592; [4]
  MIC: 3.13 µg/mL
S. aureus ATCC 33592; [5]
  MIC: 3.13 µg/mL
S. aureus ATCC 33592; [6]
  MIC: 6.25 µg/mL
S. aureus ATCC 33592; [7]
  MIC: 12.5 µg/mL
S. aureus ATCC 33592; LYM broth, pH 4.5
  MIC: 3.13 µg/mL
S. aureus ATCC 33592; LYM broth, pH 5.5
  MIC: 3.13 µg/mL
S. aureus ATCC 33592; LYM broth, pH 6.5
  MIC: 1.56 µg/mL
S. aureus ATCC 33592; [8]
  MIC: 6.25 µg/mL
Gram-negative bacteria
  GM G− (geometric mean of the MIC values): 2.4 µg/mL
  Therapeutic Index (TI) G−: 17.6
Gram-positive bacteria
  GM G+ (geometric mean of the MIC values): 4.7 µg/mL
  Therapeutic Index (TI) G+: 8.8
[2]
  GM G−/+ (geometric mean of the MIC values): 3.4 µg/mL
  Therapeutic Index (TI) G−/+: 12.4
[2]; 300 mM NaCl
  weakening of antibacterial efficacy (MIC): up to 4 fold
[2]; MgCl2 rising above 0.5 mM
  weakening of antibacterial efficacy (MIC): up to 2 fold

## Ac-KKWRKWLKWLAKK-NH2 [W5K/A9W]
[1]; [3]
  MIC: 1.56 µg/mL
[1]; LYM broth, 0.5 mM MgCl2
  MIC: 1.56 µg/mL
[1]; LYM broth, 1.5 mM MgCl2
  MIC: 1.56 µg/mL
[1]; LYM broth, 2.5 mM MgCl2
  MIC: 1.56 µg/mL
[1]; [4]
  MIC: 1.56 µg/mL
[1]; [5]
  MIC: 1.56 µg/mL
[1]; [6]
  MIC: 1.56 µg/mL
[1]; [7]
  MIC: 1.56 µg/mL
[1]; LYM broth, pH 4.5
  MIC: 1.56 µg/mL
[1]; LYM broth, pH 5.5
  MIC: 1.56 µg/mL
[1]; LYM broth, pH 6.5
  MIC: 1.56 µg/mL
[1]; [8]
  MIC: 1.56 µg/mL
S. aureus ATCC 33593; [3]
  MIC: 3.13 µg/mL
S. aureus ATCC 33593; LYM broth, 0.5 mM MgCl2
  MIC: 3.13 µg/mL
S. aureus ATCC 33593; LYM broth, 1.5 mM MgCl2
  MIC: 3.13 µg/mL
S. aureus ATCC 33593; LYM broth, 2.5 mM MgCl2
  MIC: 3.13 µg/mL
S. aureus ATCC 33593; [4]
  MIC: 3.13 µg/mL
S. aureus ATCC 33593; [5]
  MIC: 3.13 µg/mL
S. aureus ATCC 33593; [6]
  MIC: 6.25 µg/mL
S. aureus ATCC 33593; [7]
  MIC: 12.5 µg/mL
S. aureus ATCC 33593; LYM broth, pH 4.5
  MIC: 3.13 µg/mL
S. aureus ATCC 33593; LYM broth, pH 5.5
  MIC: 3.13 µg/mL
S. aureus ATCC 33593; LYM broth, pH 6.5
  MIC: 3.13 µg/mL
S. aureus ATCC 33593; [8]
  MIC: 12.5 µg/mL
S. aureus ATCC 33592; [3]
  MIC: 3.13 µg/mL
S. aureus ATCC 33592; LYM broth, 0.5 mM MgCl2
  MIC: 3.13 µg/mL
S. aureus ATCC 33592; LYM broth, 1.5 mM MgCl2
  MIC: 3.13 µg/mL
S. aureus ATCC 33592; LYM broth, 2.5 mM MgCl2
  MIC: 3.13 µg/mL
S. aureus ATCC 33592; [4]
  MIC: 3.13 µg/mL
S. aureus ATCC 33592; [5]
  MIC: 3.13 µg/mL
S. aureus ATCC 33592; [6]
  MIC: 6.25 µg/mL
S. aureus ATCC 33592; [7]
  MIC: 12.5 µg/mL
S. aureus ATCC 33592; LYM broth, pH 4.5
  MIC: 3.13 µg/mL
S. aureus ATCC 33592; LYM broth, pH 5.5
  MIC: 3.13 µg/mL
S. aureus ATCC 33592; LYM broth, pH 6.5
  MIC: 3.13 µg/mL
S. aureus ATCC 33592; [8]
  MIC: 12.5 µg/mL
Gram-negative bacteria
  GM G− (geometric mean of the MIC values): 2.1 µg/mL
  Therapeutic Index (TI) G−: 14.5
Gram-positive bacteria
  GM G+ (geometric mean of the MIC values): 8.2 µg/mL
  Therapeutic Index (TI) G+: 3.6
[2]
  GM G−/+ (geometric mean of the MIC values): 4.1 µg/mL
  Therapeutic Index (TI) G−/+: 7.3
[2]; 300 mM NaCl
  weakening of antibacterial efficacy (MIC): up to 4 fold
[2]; MgCl2 rising above 0.5 mM
  weakening of antibacterial efficacy (MIC): up to 2 fold
